From ChEMBL document CHEMBL1201862, “PubChem BioAssay data set” (2004) come the findings set out here.

Molecules are shown by their SMILES.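 Five concentrations, 48 hours, 96-well plates. GI50: concentration for 50% inhibition of growth.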 The source made the active and inactive calls. No stated cut-off is given here; in the data, active = GI50 up to about 1.1 µM and inactive = higher.

Test systems include NCI-H226; KM12; BT-549; OVCAR-5; ACHN; RPMI-8226; PC-3; HOP-62; K562; HL-60; TK-10; A498; NCI-H460; RXF 393; LOX IMVI; SF-268; SK-OV-3; A549; HOP-92.
What all share (test): inhibition of tumour cell growth, NCI panel, 48 h

Take `CCO/N=C\c1ccc2oc(-c3ccccc3)cc(=O)c2c1`: the GI50 in the assay with NCI-H226 is 0.421 µM (active); in the assay with KM12 it was 0.0522 µM (active); in the assay with BT-549 it was 1.06 µM (active); with OVCAR-5, 2.56 µM (inactive); with ACHN, 1.51 µM (inactive); in the assay with RPMI-8226, 0.215 µM (active). The GI50 in the assay with PC-3 was 0.19 µM (active); in the assay with HOP-62, 0.46 µM (active); in the assay on K562, 0.034 µM (active); in the assay with HL-60, 0.135 µM (active); in the assay on TK-10, 2.26 µM (inactive); in the assay with A498, 0.312 µM (active). Also, the GI50 is 0.136 µM (active) with NCI-H460; 0.261 µM (active) with RXF 393; 1.07 µM (active) in the assay with LOX IMVI; 0.74 µM (active) with SF-268; 0.474 µM (active) in the assay on SK-OV-3; 0.417 µM (active) with A549. For the same compound, the GI50 in the assay with HOP-92 was 3.26 µM (inactive).

Consider `N#CC(C#N)=C1C(=O)NC(N)=C1C#N`, for which the GI50 in the assay on NCI-H226, with KM12, in the assay on BT-549, in the assay on OVCAR-5, in the assay on ACHN and in the assay on RPMI-8226 was > 100 µM (inactive) in each case. For the same compound, the GI50 with PC-3, with HOP-62, in the assay on K562, in the assay on HL-60, in the assay with TK-10 and in the assay with A498 was > 100 µM (inactive) throughout. Besides, the GI50 in the assay with NCI-H460, in the assay on RXF 393, in the assay on LOX IMVI, with SF-268, in the assay with SK-OV-3 and with A549 was > 100 µM (inactive) throughout. Also, in the assay with HOP-92, the GI50 was > 100 µM (inactive).

Consider `COc1ccc2c(c1)/C(=C\c1c(Cl)n(-c3ccccc3)c3ccccc13)C(=O)N2`, for which the GI50 in the assay on NCI-H226 is 2.28 µM (inactive); in the assay on KM12, 3.18 µM (inactive); in the assay with BT-549, 10.7 µM (inactive); with OVCAR-5 it was 12.4 µM (inactive); in the assay with ACHN, 9.18 µM (inactive); with RPMI-8226, 1.38 µM (inactive). For the same compound, the GI50 is 7.23 µM (inactive) in the assay on PC-3; 12.2 µM (inactive) in the assay on HOP-62; 2.19 µM (inactive) in the assay on K562; 2.72 µM (inactive) in the assay on HL-60; 15.5 µM (inactive) with TK-10; 5.27 µM (inactive) with A498. In addition, the GI50 in the assay with NCI-H460 was 5.07 µM (inactive); in the assay on RXF 393, 2.45 µM (inactive); in the assay on LOX IMVI, 6.44 µM (inactive); in the assay with SF-268, 2.85 µM (inactive); in the assay on SK-OV-3, 7.36 µM (inactive); in the assay with A549 it was 4.34 µM (inactive). In the assay on HOP-92, the GI50 was 2.08 µM (inactive).

Regarding `Cc1ccc(O)c(-c2csc(NCN3CCN(CNc4nc(-c5cc(C)ccc5O)cs4)CC3)n2)c1`, the GI50 with NCI-H226 was > 100 µM (inactive); with KM12, > 100 µM (inactive); in the assay with BT-549, > 100 µM (inactive); in the assay with OVCAR-5, > 100 µM (inactive); with ACHN, > 100 µM (inactive); in the assay with RPMI-8226, 25.2 µM (inactive). The GI50 in the assay with PC-3, in the assay on HOP-62, with K562, in the assay with HL-60, in the assay on TK-10 and in the assay with A498 was > 100 µM (inactive) in each case. The GI50 in the assay with NCI-H460, in the assay on RXF 393, with LOX IMVI, with SF-268, with SK-OV-3 and in the assay on A549 was > 100 µM (inactive) in each case. In addition, the GI50 in the assay with HOP-92 is > 100 µM (inactive).

`CC1(C)OC[C@@H](/C=C\CCO[Si](c2ccccc2)(c2ccccc2)C(C)(C)C)N1C(=O)c1ccccc1`: the GI50 in the assay on NCI-H226 was 7.94 µM (inactive); in the assay with KM12, 7.96 µM (inactive); in the assay with BT-549, 18.5 µM (inactive); with OVCAR-5, 16.3 µM (inactive); in the assay on ACHN it was 12.3 µM (inactive); in the assay with RPMI-8226 it was 2.86 µM (inactive). Moreover, the GI50 with PC-3 is 4.07 µM (inactive); in the assay with HOP-62, 25.4 µM (inactive); in the assay with K562 it was 3.1 µM (inactive); with HL-60 it was 2.51 µM (inactive); in the assay on TK-10, 11.2 µM (inactive); in the assay with A498 it was 13.9 µM (inactive). The GI50 in the assay on NCI-H460 is 3.79 µM (inactive); in the assay on RXF 393 it was 6.84 µM (inactive); in the assay on LOX IMVI, 13.6 µM (inactive); in the assay on SF-268 it was 13.9 µM (inactive); in the assay on SK-OV-3, 48.2 µM (inactive); in the assay with A549, 3.59 µM (inactive). The GI50 in the assay with HOP-92 is 14.4 µM (inactive).

In the case of `O=C(/C(=C/c1cccs1)c1ccccc1)c1ccccc1`, the GI50 with NCI-H226 is > 100 µM (inactive); in the assay with KM12, > 100 µM (inactive); in the assay on BT-549 it was > 100 µM (inactive); with OVCAR-5, > 100 µM (inactive); in the assay on ACHN it was 39.4 µM (inactive); in the assay on RPMI-8226 it was > 100 µM (inactive). Further, the GI50 with PC-3 is 25.6 µM (inactive); in the assay with HOP-62, 7.21 µM (inactive); with K562 it was > 100 µM (inactive); in the assay with HL-60 it was 47.4 µM (inactive); in the assay with TK-10 it was > 100 µM (inactive); in the assay on A498, > 100 µM (inactive). For the same compound, the GI50 is > 100 µM (inactive) in the assay on NCI-H460; 4.99 µM (inactive) in the assay on RXF 393; > 100 µM (inactive) with LOX IMVI; > 100 µM (inactive) with SF-268; > 100 µM (inactive) in the assay with SK-OV-3; 54.2 µM (inactive) in the assay on A549. Besides, the GI50 in the assay on HOP-92 was > 100 µM (inactive).

Consider `CCOC(=O)CCC(NC(=O)c1ccc(Nc2nc3cc(C(F)(F)F)ccc3nc2-c2ccccc2)cc1)C(=O)OCC` (stereo not given), for which the GI50 with NCI-H226 was 20.7 µM (inactive); in the assay on KM12, 17.7 µM (inactive); in the assay with BT-549, 25.2 µM (inactive); in the assay on OVCAR-5, > 100 µM (inactive); in the assay with ACHN it was 21 µM (inactive); in the assay with RPMI-8226, 24.7 µM (inactive). Also, the GI50 in the assay with PC-3 was > 100 µM (inactive); in the assay on HOP-62, > 100 µM (inactive); in the assay on K562 it was 23.4 µM (inactive); in the assay with HL-60, 36.1 µM (inactive); with TK-10 it was 19.6 µM (inactive); with A498, 5.35 µM (inactive). The GI50 in the assay with NCI-H460 is 24.4 µM (inactive); in the assay on RXF 393, > 100 µM (inactive); in the assay on LOX IMVI, 19.8 µM (inactive); with SF-268, 22.3 µM (inactive); in the assay on SK-OV-3 it was 30.5 µM (inactive); with A549 it was > 100 µM (inactive). In addition, the GI50 in the assay with HOP-92 was 17.7 µM (inactive).

Turning to `C1=CC2C=CC(C=C1)P2c1ccccc1` (stereo not given), the GI50 in the assay on NCI-H226, in the assay on KM12, in the assay with BT-549, in the assay with OVCAR-5, in the assay with ACHN and in the assay with RPMI-8226 was > 100 µM (inactive) each time. The GI50 in the assay with PC-3, in the assay on HOP-62, in the assay with K562, in the assay on HL-60, in the assay on TK-10 and with A498 was > 100 µM (inactive) throughout. Moreover, the GI50 in the assay on NCI-H460, in the assay on RXF 393, in the assay on LOX IMVI, in the assay with SF-268, with SK-OV-3 and with A549 was > 100 µM (inactive) in each case. The GI50 with HOP-92 is > 100 µM (inactive).

With `O=C1C(N2CCOCC2)=C(Cl)C(=O)c2ncccc21`, the GI50 is > 6.25 µM (inactive) in the assay on NCI-H226; > 3.84 µM (inactive) in the assay with KM12; > 10 µM (inactive) in the assay with BT-549; > 10 µM (inactive) in the assay with OVCAR-5; 1.85 µM (inactive) in the assay with ACHN; 1.56 µM (inactive) in the assay on RPMI-8226. Further, the GI50 was > 9.62 µM (inactive) in the assay on PC-3; > 10 µM (inactive) in the assay on HOP-62; 1.39 µM (inactive) with K562; 0.212 µM (active) in the assay on HL-60; 1.98 µM (inactive) in the assay on TK-10; 8.32 µM (inactive) with A498. Further, the GI50 with NCI-H460 was > 6.79 µM (inactive); with RXF 393, 1.55 µM (inactive); with LOX IMVI, 1.94 µM (inactive); with SF-268 it was 2.9 µM (inactive); with SK-OV-3, > 10 µM (inactive); with A549, > 10 µM (inactive). In addition, the GI50 with HOP-92 is 1.5 µM (inactive).

Take `Cc1ccc(/N=N/c2ccc(O)c(CN(C)C)c2)cc1`: the GI50 was 20.9 µM (inactive) in the assay with NCI-H226; 15.8 µM (inactive) in the assay on KM12; 23.1 µM (inactive) in the assay on BT-549; 14.4 µM (inactive) in the assay on OVCAR-5; 17.3 µM (inactive) with ACHN; 17.8 µM (inactive) with RPMI-8226. The GI50 in the assay on PC-3 was 19.4 µM (inactive); in the assay on HOP-62, 12.6 µM (inactive); in the assay with K562 it was 20 µM (inactive); in the assay with HL-60 it was 18.1 µM (inactive); in the assay on TK-10, 21.7 µM (inactive); with A498, 19.1 µM (inactive). For the same compound, the GI50 in the assay on NCI-H460 is 16.5 µM (inactive); in the assay with RXF 393 it was 4.66 µM (inactive); in the assay on LOX IMVI, 14 µM (inactive); with SF-268 it was 20.2 µM (inactive); in the assay on SK-OV-3 it was 32.7 µM (inactive); with A549, 20.3 µM (inactive). In addition, the GI50 in the assay on HOP-92 was 12.6 µM (inactive).
